Experimental findings from PMC3465347, “Regulation of NF-κB Activation through a Novel PI-3K-Independent and PKA/Akt-Dependent Pathway in Human Umbilical Vein Endothelial Cells” (PLoS ONE, 2012) are described below.

One test has as its target T1, PKA (Homo sapiens, UniProt P17612).
T1 construct: PKA was immunoprecipitated from the total cell lysates of unstimulated and TNF-α-stimulated endothelial cells; endogenous in cells; host or cells: HUVEC (treated with MPTAG, SQ 22536, H-89 ± TNF-α), anti-PKAα immunoprecipitate
The experiment in a line: PKA activity assay. The class given is cell-based. The text has this: PKA was immunoprecipitated from the total cell lysates of unstimulated and TNF-α-stimulated endothelial cells in presence and absence of treatment with agents indicated in Figure 7 using anti-PKAα (W-18) antibody. The immunoprecipates were subjected to kinase activity assay using a Bisamide Rhodamine 110 peptide substrate as per the instructions of the Profluor PKA assay kit (Promega, USA).

Another test relates to p38 MAPK. Put plainly: p38 MAPK activation western blot. The format is cell-based, human. The note with it: MPTAG pretreatment. (In general: A western blot detects proteins with antibodies after separation by electrophoresis.)
Test [1] deals with NF-κB-dependent reporter gene transcription in HUVECs. Put plainly: NF-κB reporter gene assay (luciferase). The class given is cell-based, human. The note with it: 400 µM, TNF-α 10 ng/ml. Here is the method: NF-κB dependent reporter gene transcription was measured as per the instructions of the luciferase assay kit (Promega, USA). Briefly, human endothelial cells ([…]) were plated in 96-well plates. HUVECs were transiently transfected by electroporation with a NF-κB-containing luciferase reporter gene plasmid for 24 h. After transfection, cells were washed and treated with 400 µM MPTAG for 24 h. For the TNF-α stimulation, cells were treated with 10 ng/ml of TNF-α for another 24 h. Supernatants after cell lysis were assayed for luciferase activity. The mean value for cells treated with no MPTAG and no TNF-α was set to 1, and -fold differences were determined by comparing values against this set value. Cells were co-transfected with a control vector expressing β-galactosidase under SV40 promoter to normalize transfection efficiency.
For orientation: A reporter such as luciferase makes a cellular process visible.

On to `CC(=O)OC[C@H]1O[C@@H](Oc2c(C)occc2=O)[C@H](OC(C)=O)[C@@H](OC(C)=O)[C@@H]1OC(C)=O` [MPTAG, 2-methyl-pyran-4-one-3-O-β-D-2′,3′,4′,6′-tetra-O-acetyl glucopyranoside], for which the “PKA activity in unstimulated HUVECs, MPTAG and SQ 22536 added together” value on PKA (MPTAG + SQ 22536) is “remained increased”. For the same molecule, the “PKA activity in TNF-α-stimulated HUVECs” value on PKA (MPTAG alone or together with SQ 22536) is given as “restored PKA activity”. The “TNF-α-induced p38 activation” value in the test with p38 MAPK is “no effect”. Further, the NF-κB-regulated luciferase activity result in test [1] is recorded as “significantly inhibited”.
